Source: patent US10981917B2, “Heterocyclic compound, its preparation method, and pharmaceutical composition comprising the same” (Daewoong Pharmaceutical Co., Ltd., priority 2017, dated 2021)

Target: PRS (prolyl-tRNA synthetase) protein, PRS portion of EPRS (Homo sapiens (Human), UniProt P07814)
Assay: PRS enzyme activity inhibition experiment ([3H]proline, liquid scintillation)
Assay type: biochemical
Details: purified PRS protein, 37° C. for 5 to 10 minutes
Procedure: In order to confirm the biological activities of the compounds prepared in Examples, % inhibition or IC50 values of PRS enzyme ([…]) activities were calculated.
Specifically, the portion corresponding to PRS in cDNA of EPRS was subcloned, and the obtained high-purity PRS protein was purified and used in the experiment. The compounds (1 μM) prepared in Examples were added into the reaction buffer (20 mM KPO4 (pH 7.4), 6 mM MgAc, 5 mM ATP, […] tRNA, 0.5 mM DTT, […][^3H]proline (1 mCi/mL)) and allowed to react at 37° C. for 5 to 10 minutes. The reaction was terminated with 3M paper that was in advance dried by addition of 5% TCA. The radioactivity was measured using a liquid scintillation counter.
% Inhibition and IC50 values of the respective compounds were calculated and analyzed using Microsoft Excel or Sigma Plot 8.0. In Tables 1 to 3, the results are divided into A, B and C according to the range of IC50. The case where the derived IC50 is 100 nM or less is represented by “A”, the case where the IC50 is 100 to 500 nM is represented by “B”, and the case where the IC50 is 500 nM or higher is represented by “C”.

Chain of PRS (prolyl-tRNA synthetase) protein, PRS portion of EPRS (P07814 1007-1512): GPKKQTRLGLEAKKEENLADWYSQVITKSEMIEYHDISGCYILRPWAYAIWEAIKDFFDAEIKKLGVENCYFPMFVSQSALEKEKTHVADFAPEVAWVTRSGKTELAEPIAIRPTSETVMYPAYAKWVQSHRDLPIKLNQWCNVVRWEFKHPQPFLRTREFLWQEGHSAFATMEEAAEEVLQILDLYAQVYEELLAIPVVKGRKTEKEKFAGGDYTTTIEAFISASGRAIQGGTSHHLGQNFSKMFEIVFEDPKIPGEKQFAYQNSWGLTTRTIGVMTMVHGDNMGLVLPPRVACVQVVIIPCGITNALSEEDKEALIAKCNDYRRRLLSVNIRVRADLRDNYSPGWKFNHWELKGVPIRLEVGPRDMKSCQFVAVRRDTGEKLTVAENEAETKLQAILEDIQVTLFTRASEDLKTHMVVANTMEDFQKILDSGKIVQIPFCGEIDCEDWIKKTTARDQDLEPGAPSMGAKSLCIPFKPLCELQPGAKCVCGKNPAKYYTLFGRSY

Row | SMILES | IC50 [µM]
1 | O[C@H]1CCCN[C@@H]1CCCn1cnc2cc(C(F)(F)F)cc(-c3cccc(F)c3)c21 [Example 84, (2R,3S)-2-(3-(7-(3-fluorophenyl)-5-(trifluoromethyl)-1H-benzo[d]imidazol-1-yl)propyl)piperidin-3-ol] | ≥ 0.5
2 | Cc1ncc(-c2cc(Cl)cc3ncn(CCC[C@H]4NCCC[C@@H]4O)c23)s1 [Example 85, (2R,3S)-2-(3-(5-chloro-7-(2-methylthiazol-5-yl)-1H-benzo[d]imidazol-1-yl)propyl)piperidin-3-ol] | 0.1 to 0.5
3 | O[C@H]1CCCN[C@@H]1CCCn1cnc2cc(Cl)cc(-c3cccnc3)c21 [Example 86, (2R,3S)-2-(3-(5-chloro-7-(pyridin-3-yl)-1H-benzo[d]imidazol-1-yl)propyl)piperidin-3-ol] | 0.1 to 0.5
4 | O[C@H]1CCCN[C@@H]1CCCn1cnc2cc(Cl)cc(-c3cncc(F)c3)c21 [Example 87, (2R,3S)-2-(3-(5-chloro-7-(5-fluoropyridin-3-yl)-1H-benzo[d]imidazol-1-yl)propyl)piperidin-3-ol] | 0.1 to 0.5
5 | Cn1cc(-c2cc(Cl)cc3ncn(CCC[C@H]4NCCC[C@@H]4O)c23)ccc1=O [Example 88, 5-(5-chloro-1-(3-((2R,3S)-3-hydroxypiperidin-2-yl)propyl)-1H-benzo[d]imidazol-7-yl)-1-methylpyridin-2(1H)-one] | ≥ 0.5
6 | O[C@H]1CCCN[C@@H]1CCCn1cnc2cc(Cl)cc(-c3cnn(C(F)F)c3)c21 [Example 89, (2R,3S)-2-(3-(5-chloro-7-(1-(difluoromethyl)-1H-pyrazol-4-yl)-1H-benzo[d]imidazol-1-yl)propyl)piperidin-3-ol] | ≤ 0.1
7 | O[C@H]1CCCN[C@@H]1CCCn1cnc2cc(Cl)cc(-c3ccon3)c21 [Example 90, (2R,3S)-2-(3-(5-chloro-7-(Isoxazol-3-yl)-1H-benzo[d]imidazol-1-yl)propyl)piperidin-3-ol] | 0.1 to 0.5
8 | O[C@H]1CCCN[C@@H]1CCCn1cnc2cc(Cl)cc(-c3ccsc3)c21 [Example 91, (2R,3S)-2-(3-(5-chloro-7-(thiophen-3-yl)-1H-benzo[d]imidazol-1-yl)propyl)piperidin-3-ol] | ≤ 0.1
9 | Cc1sccc1-c1cc(Cl)cc2ncn(CCC[C@H]3NCCC[C@@H]3O)c12 [Example 92, (2R,3S)-2-(3-(5-chloro-7-(2-methylthiophen-3-yl)-1H-benzo[d]imidazol-1-yl)propyl)piperidin-3-ol] | 0.1 to 0.5
10 | Cc1noc(C)c1-c1cc(Cl)cc2ncn(CCC[C@H]3NCCC[C@@H]3O)c12 [Example 93, (2R,3S)-2-(3-(5-chloro-7-(3,5-dimethylisoxazol-4-yl)-1H-benzo[d]imidazol-1-yl)propyl)piperidin-3-ol] | ≥ 0.5
11 | O[C@H]1CCCN[C@@H]1CCCn1cnc2cc(Cl)cc(C3=CCOCC3)c21 [Example 94, (2R,3S)-2-(3-(5-chloro-7-(3,6-dihydro-2H-pyran-4-yl)-1H-benzo[d]imidazol-1-yl)propyl)piperidin-3-ol] | 0.1 to 0.5
12 | O[C@H]1CCCN[C@@H]1CCCn1cnc2cc(Cl)cc(-c3cnn(CC4OCCO4)c3)c21 [Example 95, (2R,3S)-2-(3-(7-(1-((1,3-dioxolan-2-yl)methyl)-1H-pyrazol-4-yl)-5-chloro-1H-benzo[d]imidazol-1-yl)propyl)piperidin-3-ol] | 0.1 to 0.5
13 | Cn1cncc1-c1cc(Cl)cc2ncn(CCC[C@H]3NCCC[C@@H]3O)c12 [Example 96, (2R,3S)-2-(3-(5-chloro-7-(1-methyl-1H-imidazol-5-yl)-1H-benzo[d]imidazol-1-yl)propyl)piperidin-3-ol] | ≥ 0.5
14 | Cn1cc(-c2cc(Cl)cc3ncn(CCC[C@H]4NCCC[C@@H]4O)c23)cn1 [Example 97, (2R,3S)-2-(3-(5-chloro-7-(1-methyl-1H-pyrazol-4-yl)-1H-benzo[d]imidazol-1-yl)propyl)piperidin-3-ol] | ≤ 0.1
15 | O[C@H]1CCCN[C@@H]1CCCn1cnc2cccc(N3CCCC3)c21 [Example 98, (2R,3S)-2-(3-(7-(pyrrolidin-1-yl)-1H-benzo[d]imidazol-1-yl)propyl)piperidin-3-ol] | 0.1 to 0.5
16 | O[C@H]1CCCN[C@@H]1CCCn1cnc2cc(Cl)cc(N3CCCC3)c21 [Example 99, (2R,3S)-2-(3-(5-chloro-7-(pyrrolidin-1-yl)-1H-benzo[d]imidazol-1-yl)propyl)piperidin-3-ol] | ≤ 0.1
17 | O[C@H]1CCCN[C@@H]1CCCn1cnc2cc(Cl)cc(-c3cnc(C4CC4)s3)c21 [Example 100, (2R,3S)-2-(3-(5-chloro-7-(2-cyclopropylthiazol-5-yl)-1H-benzo[d]imidazol-1-yl)propyl)piperidin-3-ol] | 0.1 to 0.5

Row | SMILES | IC50 [µM]
18 | O[C@H]1CCCN[C@@H]1CCCn1cnc2cc(Cl)cc(-c3cnn(-c4nccs4)c3)c21 [Example 101, (2R,3S)-2-(3-(5-chloro-7-(1-(thiazol-2-yl)-1H-pyrazol-4-yl)-1H-benzo[d]imidazol-1-yl)propyl)piperidin-3-ol] | ≤ 0.1
19 | O[C@H]1CCCN[C@@H]1CCCn1cnc2cc(Cl)cc(-c3cnn(C4COC4)c3)c21 [Example 102, (2R,3S)-2-(3-(5-chloro-7-(1-(oxetan-3-yl)-1H-pyrazol-4-yl)-1H-benzo[d]imidazol-1-yl)propyl)piperidin-3-ol] | 0.1 to 0.5
20 | O[C@H]1CCCN[C@@H]1CCCn1cnc2cc(Cl)cc(-c3csc(C4CCOCC4)n3)c21 [Example 103, (2R,3S)-2-(3-(5-chloro-7-(2-(tetrahydro-2H-pyran-4-yl)thiazol-4-yl)-1H-benzo[d]imidazol-1-yl)propyl)piperidin-3-ol] | ≥ 0.5
21 | O[C@H]1CCCN[C@@H]1CCCn1cnc2cc(Cl)cc(-c3ccoc3)c21 [Example 104, (2R,3S)-2-(3-(5-chloro-7-(furan-3-yl)-1H-benzo[d]imidazol-1-yl)propyl)piperidin-3-ol] | ≤ 0.1
22 | N#Cc1nc(-c2cc(Cl)cc3ncn(CCC[C@H]4NCCC[C@@H]4O)c23)cs1 [Example 105, 4-(5-chloro-1-(3-((2R,3S)-3-hydroxypiperidin-2-yl)propyl)-1H-benzo[d]imidazol-7-yl)thiazole-2-carbonitrile] | ≥ 0.5
23 | CC(C)(C)n1cc(-c2cc(Cl)cc3ncn(CCC[C@H]4NCCC[C@@H]4O)c23)cn1 [Example 106, (2R,3S)-2-(3-(7-(1-(tert-butyl)-1H-pyrazol-4-yl)-5-chloro-1H-benzo[d]imidazol-1-yl)propyl)piperidin-3-ol] | 0.1 to 0.5
24 | CC(C)CCn1cc(-c2cc(Cl)cc3ncn(CCC[C@H]4NCCC[C@@H]4O)c23)cn1 [Example 107, (2R,3S)-2-(3-(5-chloro-7-(1-isopentyl-1H-pyrazol-4-yl)-1H-benzo[d]imidazol-1-yl)propyl)piperidin-3-ol] | 0.1 to 0.5
25 | CC(C)n1cc(-c2cc(Cl)cc3ncn(CCC[C@H]4NCCC[C@@H]4O)c23)cn1 [Example 108, (2R,3S)-2-(3-(5-chloro-7-(1-isopropyl-1H-pyrazol-4-yl)-1H-benzo[d]imidazol-1-yl)propyl)piperidin-3-ol] | 0.1 to 0.5
26 | Cc1cscc1-c1cc(Cl)cc2ncn(CCC[C@H]3NCCC[C@@H]3O)c12 [Example 109, (2R,3S)-2-(3-(5-chloro-7-(4-methylthiophen-3-yl)-1H-benzo[d]imidazol-1-yl)propyl)piperidin-3-ol] | ≤ 0.1
27 | CCOC(=O)c1occc1-c1cc(Cl)cc2ncn(CCC[C@H]3NCCC[C@@H]3O)c12 [Example 110, ethyl 3-(5-chloro-1-(3-((2R,3S)-3-hydroxypiperidin-2-yl)propyl)-1H-benzo[d]imidazol-7-yl)furan-2-carboxylate] | ≥ 0.5
28 | COC(=O)c1cc(-c2cc(Cl)cc3ncn(CCC[C@H]4NCCC[C@@H]4O)c23)cs1 [Example 111, methyl 4-(5-chloro-1-(3-((2R,3S)-3-hydroxypiperidin-2-yl)propyl)-1H-benzo[d]imidazol-7-yl)thiophene-2-carboxylate] | ≤ 0.1
29 | O[C@H]1CCCN[C@@H]1CCCn1cnc2cc(Cl)cc(-c3cnn(CCF)c3)c21 [Example 112, (2R,3S)-2-(3-(5-chloro-7-(1-(2-fluoroethyl)-1H-pyrazol-4-yl)-1H-benzo[d]imidazol-1-yl)propyl)piperidin-3-ol] | 0.1 to 0.5
30 | CCCCn1cc(-c2cc(Cl)cc3ncn(CCC[C@H]4NCCC[C@@H]4O)c23)cn1 [Example 113, (2R,3S)-2-(3-(7-(1-butyl-1H-pyrazol-4-yl)-5-chloro-1H-benzo[d]imidazol-1-yl)propyl)piperidin-3-ol] | 0.1 to 0.5
31 | Cc1cc(-c2cc(Cl)cc3ncn(CCC[C@H]4NCCC[C@@H]4O)c23)c(C)s1 [Example 114, (2R,3S)-2-(3-(5-chloro-7-(2,5-dimethylthiophen-3-yl)-1H-benzo[d]imidazol-1-yl)propyl)piperidin-3-ol] | 0.1 to 0.5
32 | CC(C)Cn1cc(-c2cc(Cl)cc3ncn(CCC[C@H]4NCCC[C@@H]4O)c23)cn1 [Example 115, (2R,3S)-2-(3-(5-chloro-7-(1-isobutyl-1H-pyrazol-4-yl)-1H-benzo[d]imidazol-1-yl)propyl)piperidin-3-ol] | 0.1 to 0.5
33 | CCOC(=O)c1cc(-c2cc(Cl)cc3ncn(CCC[C@H]4NCCC[C@@H]4O)c23)cn1C [Example 116, ethyl 4-(5-chloro-1-(3-((2R,3S)-3-hydroxypiperidin-2-yl)propyl)-1H-benzo[d]imidazol-7-yl)-1-methyl-1H-pyrrole-2-carboxylate] | ≤ 0.1
